Test [1] relates to CD133 positive cells isolated from No. 66. Kind of test: WST-1 Cell Proliferation Assay, drug sensitivity of CD133 positive vs CD133 negative cells, No. 66. Type of test: cell-based, human. Particulars: No. 66, 48 hours, 10% FBS/F-12/DMEM. The method, then:
FIGS. 10A-10D are line graphs depicting drug sensitivity of CD133 positive cancer stem cells derived from patient No. 66. Tumor cells of No. 66 were cultured in FBS/F-12/DMEM medium for 4 passages. Both CD133 positive and negative tumor cells were collected by FACS sorting. 1×10^4 cells/well were plated in 96-well plate and treated with the indicated concentrations of VP-16, Taxol, temozolomide, and carboplatin for 48 hours in FBS/F-12/DMEM medium. * indicates p<0.05 compared to autologous CD133 negative cells. Data are representative of two independent experiments. (10A) VP16; (10B) Taxol; (10C) temozolomide; (10D) carboplatin.
(§1) To determine whether CD133 positive cancer stem cells were resistant to chemotherapeutic agents, the WST-1 Cell Proliferation Assay was used to examine the drug sensitivity of CD133 positive cells and CD133 negative cells (both collected by FACS sorting from the three glioblastoma patients' primary cultured tumor cells as described above). CD133 positive and negative cells were exposed to conventional chemotherapeutic agents, temozolomide, carboplatin, VP-16 or taxol at various concentrations, for up to 48 hours in 10% FBS/F-12/DMEM culture medium. Temozolomide was supplied by the Schering-Plough Research Institute (Kenilworth, N.J.) and was dissolved in DMSO (Sigma Chemical Co., St Louis, Mo.) at 100 mM stock solution. Carboplatin, etoposide (VP-16) and paclitaxel (Taxol) were obtained from Sigma-Aldrich (St. Louis, Mo.).

Test [2] has as its system CD133 positive cells isolated from No. 377. Kind of test: WST-1 Cell Proliferation Assay, drug sensitivity of CD133 positive vs CD133 negative cells, No. 377. Particulars: 48 hours. Type of test: cell-based, human. On the procedure: (§2) FIGS. 11A-11C are a set of line graphs depicting drug sensitivity of CD133 positive cancer stem cells derived from patient Nos. 377 and 1049. Tumor cells of patient No. 377 and No. 1049 were cultured in FBS/F-12/DMEM medium for 3 passages. Both CD133 positive and negative tumor cells were collected by FACS sorting. 1×10^4 cells/well were plated in 96-well plate and treated with the indicated concentrations of carboplatin (11A and 11C) or VP-16 (11B) for 48 hours in FBS/F-12/DMAEM medium. * indicates p<0.05 compared to autologous CD133 negative cells. Data are representative of two independent experiments.
as §1, with “Carboplatin, etoposide (VP-16) and paclitaxel (Taxol) were obtained from Sigma-Aldrich (St. Louis, Mo.).” left out

Test [3] has as its system CD133 positive cells isolated from No. 1049. Put plainly: WST-1 Cell Proliferation Assay, drug sensitivity of CD133 positive vs CD133 negative cells, No. 1049. Type of test: cell-based, human. To be noted: No. 1049, at 200 μM, 48 hours. On the procedure:
as §2
as §1, with “Carboplatin, etoposide (VP-16) and paclitaxel (Taxol) were obtained from Sigma-Aldrich (St. Louis, Mo.).” left out

For test [4], the system named is 9L sphere and monolayer cells. Kind of test: WST-1 viability of 9L neurospheres and monolayer cells exposed to chemotherapeutic agents. The format is cell-based, rat. Particulars: 125-1,000 μM, 2 days. The method, then: To compare the differential proliferation rates and resistance to chemotherapeutic agents, 2,000 healthy 9L sphere and monolayer cells were exposed to either Dulbecco's modified Eagle's medium/F-12 medium containing 10% fetal bovine serum (FBS), or […] stock solution of Temozolamide or Carboplatin dissolved in PBS at concentrations of 1,000 μM, 500 μM, 250 μM, and 125 μM for 2 days. The viability of the cells was scored by measurement of the absorption of formazan dye (the amount of formazan dye formed directly correlates to the number of metabolically active cells) using the cellular proliferation assay WST-1 (Roche Molecular Biochemicals, Mannheim, Germany). Formazan was measured with the use of a microplate reader (Tecan) and spectrophotometer set at a wavelength of 440 nm and a reference wavelength of 890 nm. Cellular viability was determined by exposing cells to WST-1 for 4 hours, and calculating the percentage of viable cells. Proliferation was also assessed by using manual cell counting after 7 days in culture, with an initial cellular concentration of 100,000 cells/mL in a […] flask.

“Also recorded” adds a separate entry of the source.

Take `CC(=O)O[C@H]1C(=O)[C@@]2(C)[C@H]([C@H](OC(=O)c3ccccc3)[C@]3(O)C[C@H](OC(=O)[C@H](O)[C@@H](NC(=O)c4ccccc4)c4ccccc4)C(C)=C1C3(C)C)[C@]1(OC(C)=O)CO[C@@H]1C[C@@H]2O` [Taxol, paclitaxel]: the “drug resistance of CD133 positive cells compared to autologous CD133 negative cells” value in test [1] was “dramatic drug resistance”.

On to `COc1cc([C@@H]2c3cc4c(cc3[C@@H](O[C@@H]3O[C@@H]5CO[C@@H](C)O[C@H]5[C@H](O)[C@H]3O)[C@H]3COC(=O)[C@H]23)OCO4)cc(OC)c1O` [VP-16, etoposide], for which, in test [2] (No. 377, at 200 μM), the “resistance of CD133 positive cells compared to autologous CD133 negative cells” value is reported as “significant resistance”. For the same molecule, the “drug resistance of CD133 positive cells compared to autologous CD133 negative cells” value in test [1] was “dramatic drug resistance”.

Consider `N.N.O=C([O-])C1(C(=O)[O-])CCC1.[Pt+2]` [carboplatin], for which the “resistance of CD133 positive cells compared to autologous CD133 negative cells” value in test [2] (No. 377, all concentrations tested) is on record as “significant resistance”; in test [3], “significant resistance”. The “resistance of neurospheres to the agent compared to monolayer cells” value in test [4] is given as “significantly (P<0.05) greater resistance; also recorded: significantly more resistant”. The “drug resistance of CD133 positive cells compared to autologous CD133 negative cells” value in test [1] is “dramatic drug resistance”.
